pIC50: −log10 of the molar value.
What was measured:
[1] = target: Mast/stem cell growth factor receptor Kit (Homo sapiens, UniProt P10721); assay: Inhibition of c-KIT
Mus musculus [2] = assay: Inhibition of JAK2 in HEL 92.1.7 cells xenografted in po dosed nude mouse assessed as inhibition of STAT3 phosphorylation after 4 hrs; type: functional, organism-based
Mus musculus [3] = assay: Dose normalized AUC in athymic nude mouse at 10 mg/kg, po; type: ADME, organism-based; design: dose 10 mg/kg, route oral; settings: in vivo
[4] = Half life in CD rat at 5 mg/kg, po; type: ADME, organism-based; design: dose 5 mg/kg, route oral; settings: in vivo
[5] = Cmax in CD rat at 5 mg/kg, iv; type: ADME, organism-based; design: dose 5 mg/kg, route intravenous; settings: in vivo
[6] = target: Vascular endothelial growth factor receptor 3 (Homo sapiens, UniProt P35916); assay: Inhibition of FLT4
Vascular endothelial growth factor receptor 3, sequence (P35916 whole entry): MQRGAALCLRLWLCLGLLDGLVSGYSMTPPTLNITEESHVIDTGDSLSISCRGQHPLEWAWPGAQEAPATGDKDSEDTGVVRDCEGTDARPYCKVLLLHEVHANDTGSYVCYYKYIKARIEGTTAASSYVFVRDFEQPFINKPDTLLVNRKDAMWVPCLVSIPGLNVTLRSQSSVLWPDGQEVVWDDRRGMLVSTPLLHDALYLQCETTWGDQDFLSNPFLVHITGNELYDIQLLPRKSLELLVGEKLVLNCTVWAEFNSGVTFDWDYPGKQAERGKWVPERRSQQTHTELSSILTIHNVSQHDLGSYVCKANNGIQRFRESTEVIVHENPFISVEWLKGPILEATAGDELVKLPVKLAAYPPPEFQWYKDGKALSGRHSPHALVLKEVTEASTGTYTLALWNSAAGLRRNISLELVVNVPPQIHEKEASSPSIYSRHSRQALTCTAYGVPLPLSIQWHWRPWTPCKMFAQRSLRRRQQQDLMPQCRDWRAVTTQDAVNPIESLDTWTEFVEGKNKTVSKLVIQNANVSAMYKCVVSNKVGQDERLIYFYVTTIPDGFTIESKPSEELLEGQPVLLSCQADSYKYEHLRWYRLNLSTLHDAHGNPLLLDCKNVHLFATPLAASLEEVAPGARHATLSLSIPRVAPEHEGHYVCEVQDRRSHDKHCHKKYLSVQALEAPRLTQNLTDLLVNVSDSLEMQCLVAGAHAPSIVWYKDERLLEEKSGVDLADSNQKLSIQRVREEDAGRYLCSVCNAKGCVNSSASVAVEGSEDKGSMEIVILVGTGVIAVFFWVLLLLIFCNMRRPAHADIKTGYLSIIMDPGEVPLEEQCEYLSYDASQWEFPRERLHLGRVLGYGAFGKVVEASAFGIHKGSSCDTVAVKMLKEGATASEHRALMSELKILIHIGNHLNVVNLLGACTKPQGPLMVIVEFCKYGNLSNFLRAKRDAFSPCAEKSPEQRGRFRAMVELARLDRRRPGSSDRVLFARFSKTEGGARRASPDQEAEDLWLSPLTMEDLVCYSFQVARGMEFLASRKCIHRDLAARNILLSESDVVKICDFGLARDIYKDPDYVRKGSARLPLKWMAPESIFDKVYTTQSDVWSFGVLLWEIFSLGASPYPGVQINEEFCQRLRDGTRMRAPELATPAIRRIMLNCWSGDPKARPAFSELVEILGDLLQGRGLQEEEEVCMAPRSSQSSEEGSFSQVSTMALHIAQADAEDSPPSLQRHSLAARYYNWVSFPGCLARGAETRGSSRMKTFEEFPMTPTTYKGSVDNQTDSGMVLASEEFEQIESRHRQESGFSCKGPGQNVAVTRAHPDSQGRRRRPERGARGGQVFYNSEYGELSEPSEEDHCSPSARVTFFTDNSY

Mus musculus [7] = assay: Inhibition of JAK2 in HEL 92.1.7 cells xenografted in nude mouse assessed as inhibition of STAT3 phosphorylation at 100 mg/kg, po after 4 hrs relative to vehicle-treated control; type: functional
[8] = Half life in Beagle dog at 3 mg/kg, po; type: ADME, organism-based, Canis lupus familiaris; design: dose 3 mg/kg, route oral; settings: in vivo
HEL [9] = assay: Anitumour activity against HEL 92.1.7 cells xenografted in nude mouse assessed as tumor growth inhibition at 300 mg/kg, po bid administered up to 14 days relative to vehicle-treated control; type: functional, Homo sapiens; settings: 336 h, read-out: TGI
[10] = Drug uptake in nude mouse xenografted with HEL 92.1.7 cells at 300 mg/kg, po after 4 hrs; type: ADME, organism-based; design: dose 300 mg/kg, route oral; settings: in vivo, read-out: Drug uptake
[11] = target: Platelet-derived growth factor receptor alpha (Homo sapiens, UniProt P16234); assay: Inhibition of PDGFRA
Mus musculus [12] = assay: Inhibition of JAK2 in HEL 92.1.7 cells xenografted in nude mouse assessed as inhibition of STAT1 phosphorylation at 30 mg/kg, po after 4 hrs relative to vehicle-treated control; type: functional
[13] = Cmax in cynomolgus monkey at 3 mg/kg, iv; type: ADME, organism-based, Macaca fascicularis; design: dose 3 mg/kg, route intravenous; settings: in vivo
Cytochrome P450 2D6 = Cytochrome P450 2D6 (Homo sapiens, UniProt P10635); assay: Inhibition of CYP2D6; type: ADME
[14] = Half life in athymic nude mouse at 10 mg/kg, iv; type: ADME, organism-based; design: dose 10 mg/kg, route intravenous; settings: in vivo
Mus musculus [15] = assay: Inhibition of JAK2 in HEL 92.1.7 cells xenografted in nude mouse assessed as inhibition of STAT1 phosphorylation at 100 mg/kg, po after 4 hrs relative to vehicle-treated control; type: functional
[16] = Drug uptake in nude mouse xenografted with HEL 92.1.7 cells at 30 mg/kg, po after 4 hrs; type: ADME, organism-based; design: dose 30 mg/kg, route oral; settings: in vivo, read-out: Drug uptake
[17] = target: Platelet-derived growth factor receptor beta (Homo sapiens, UniProt P09619); assay: Inhibition of PDGFRB
Platelet-derived growth factor receptor beta, sequence (P09619 whole entry): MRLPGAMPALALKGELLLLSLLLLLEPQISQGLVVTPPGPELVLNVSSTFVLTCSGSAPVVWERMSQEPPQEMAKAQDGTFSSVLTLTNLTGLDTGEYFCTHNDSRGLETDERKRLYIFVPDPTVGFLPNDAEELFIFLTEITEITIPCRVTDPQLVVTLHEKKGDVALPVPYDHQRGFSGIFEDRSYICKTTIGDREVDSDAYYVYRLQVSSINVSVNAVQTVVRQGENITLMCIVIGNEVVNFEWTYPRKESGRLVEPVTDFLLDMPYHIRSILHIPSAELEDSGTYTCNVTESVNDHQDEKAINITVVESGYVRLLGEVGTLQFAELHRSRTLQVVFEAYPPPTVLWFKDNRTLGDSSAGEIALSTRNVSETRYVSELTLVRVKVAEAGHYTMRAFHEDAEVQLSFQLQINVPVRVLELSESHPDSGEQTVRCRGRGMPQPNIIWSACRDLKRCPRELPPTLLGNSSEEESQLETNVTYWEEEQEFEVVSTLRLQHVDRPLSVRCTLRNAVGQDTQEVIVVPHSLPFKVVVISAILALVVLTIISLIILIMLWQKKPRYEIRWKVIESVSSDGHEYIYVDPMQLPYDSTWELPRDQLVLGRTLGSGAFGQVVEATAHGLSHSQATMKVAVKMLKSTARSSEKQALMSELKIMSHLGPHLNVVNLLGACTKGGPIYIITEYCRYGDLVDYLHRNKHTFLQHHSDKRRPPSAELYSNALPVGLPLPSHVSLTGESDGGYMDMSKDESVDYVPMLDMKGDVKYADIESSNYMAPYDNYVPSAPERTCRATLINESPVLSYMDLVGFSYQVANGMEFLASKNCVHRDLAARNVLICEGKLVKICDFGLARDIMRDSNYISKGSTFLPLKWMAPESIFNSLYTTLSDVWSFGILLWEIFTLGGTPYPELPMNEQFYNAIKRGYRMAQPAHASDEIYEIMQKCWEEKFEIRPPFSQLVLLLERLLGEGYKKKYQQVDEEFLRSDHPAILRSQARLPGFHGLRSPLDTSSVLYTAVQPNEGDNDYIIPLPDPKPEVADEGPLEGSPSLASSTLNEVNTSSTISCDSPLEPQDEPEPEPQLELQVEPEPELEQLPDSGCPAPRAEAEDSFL

[18] = Half life in cynomolgus monkey at 3 mg/kg, po; type: ADME, organism-based, Macaca fascicularis; design: dose 3 mg/kg, route oral; settings: in vivo
[19] = Cmax in Beagle dog at 3 mg/kg, po; type: ADME, organism-based, Canis lupus familiaris; design: dose 3 mg/kg, route oral; settings: in vivo
[20] = target: Vascular endothelial growth factor receptor 2 (Homo sapiens, UniProt P35968); assay: Inhibition of KDR
[21] = Cmax in cynomolgus monkey at 3 mg/kg, po; type: ADME, organism-based, Macaca fascicularis; design: dose 3 mg/kg, route oral; settings: in vivo
[22] = Plasma concentration in nude mouse xenografted with HEL 92.1.7 cells at 100 mg/kg, po after 4 hrs; type: ADME, organism-based; design: dose 100 mg/kg, route oral
Mus musculus [23] = assay: Inhibition of JAK2 in HEL 92.1.7 cells xenografted in po dosed nude mouse assessed as inhibition of STAT1 phosphorylation after 4 hrs; type: functional, organism-based
[24] = Half life in cynomolgus monkey at 3 mg/kg, iv; type: ADME, organism-based, Macaca fascicularis; design: dose 3 mg/kg, route intravenous; settings: in vivo
[25] = target: Vascular endothelial growth factor receptor 1 (Homo sapiens, UniProt P17948); assay: Inhibition of FLT1
Canis familiaris [26] = assay: Dose normalized AUC in Beagle dog at 3 mg/kg, iv; type: ADME, organism-based, Canis lupus familiaris; design: dose 3 mg/kg, route intravenous; settings: in vivo
Canis familiaris [27] = assay: Volume of distribution in Beagle dog at 3 mg/kg, po and iv; type: ADME, organism-based, Canis lupus familiaris; design: dose 3 mg/kg, route oral; settings: in vivo
[28] = Cmax in athymic nude mouse at 10 mg/kg, po; type: ADME, organism-based; design: dose 10 mg/kg, route oral; settings: in vivo
[29] = Oral bioavailability in CD rat at 5 mg/kg; type: ADME, organism-based; settings: in vivo
Mus musculus [30] = assay: Inhibition of JAK2 in HEL 92.1.7 cells xenografted in nude mouse assessed as inhibition of STAT3 phosphorylation at 30 mg/kg, po after 4 hrs relative to vehicle-treated control; type: functional
HEL [31] = assay: Anitumour activity against HEL 92.1.7 cells xenografted in nude mouse assessed as tumor growth inhibition at 200 mg/kg, po bid administered up to 14 days relative to vehicle-treated control; type: functional, Homo sapiens; settings: 336 h, read-out: TGI
[32] = Plasma concentration in nude mouse xenografted with HEL 92.1.7 cells at 30 mg/kg, po after 4 hrs; type: ADME, organism-based; design: dose 30 mg/kg, route oral
[33] = target: Inhibitor of nuclear factor kappa-B kinase subunit beta (Homo sapiens, UniProt O14920); assay: Inhibition of IKKbeta
[34] = Cmax in athymic nude mouse at 10 mg/kg, iv; type: ADME, organism-based; design: dose 10 mg/kg, route intravenous; settings: in vivo
Rattus norvegicus = assay: Dose normalized AUC in CD rat at 5 mg/kg, iv; type: ADME, organism-based; design: dose 5 mg/kg, route intravenous; settings: in vivo
[35] = target: Tyrosine-protein kinase JAK1 (Homo sapiens, UniProt P23458); assay: Inhibition of JAK1
Cytochrome P450 1A2 = Cytochrome P450 1A2 (Homo sapiens, UniProt P05177); assay: Inhibition of CYP1A2; type: ADME
[36] = target: Voltage-gated inwardly rectifying potassium channel KCNH2 (Homo sapiens, UniProt Q12809); assay: Inhibition of human ERG
Voltage-gated inwardly rectifying potassium channel KCNH2, sequence (Q12809 whole entry): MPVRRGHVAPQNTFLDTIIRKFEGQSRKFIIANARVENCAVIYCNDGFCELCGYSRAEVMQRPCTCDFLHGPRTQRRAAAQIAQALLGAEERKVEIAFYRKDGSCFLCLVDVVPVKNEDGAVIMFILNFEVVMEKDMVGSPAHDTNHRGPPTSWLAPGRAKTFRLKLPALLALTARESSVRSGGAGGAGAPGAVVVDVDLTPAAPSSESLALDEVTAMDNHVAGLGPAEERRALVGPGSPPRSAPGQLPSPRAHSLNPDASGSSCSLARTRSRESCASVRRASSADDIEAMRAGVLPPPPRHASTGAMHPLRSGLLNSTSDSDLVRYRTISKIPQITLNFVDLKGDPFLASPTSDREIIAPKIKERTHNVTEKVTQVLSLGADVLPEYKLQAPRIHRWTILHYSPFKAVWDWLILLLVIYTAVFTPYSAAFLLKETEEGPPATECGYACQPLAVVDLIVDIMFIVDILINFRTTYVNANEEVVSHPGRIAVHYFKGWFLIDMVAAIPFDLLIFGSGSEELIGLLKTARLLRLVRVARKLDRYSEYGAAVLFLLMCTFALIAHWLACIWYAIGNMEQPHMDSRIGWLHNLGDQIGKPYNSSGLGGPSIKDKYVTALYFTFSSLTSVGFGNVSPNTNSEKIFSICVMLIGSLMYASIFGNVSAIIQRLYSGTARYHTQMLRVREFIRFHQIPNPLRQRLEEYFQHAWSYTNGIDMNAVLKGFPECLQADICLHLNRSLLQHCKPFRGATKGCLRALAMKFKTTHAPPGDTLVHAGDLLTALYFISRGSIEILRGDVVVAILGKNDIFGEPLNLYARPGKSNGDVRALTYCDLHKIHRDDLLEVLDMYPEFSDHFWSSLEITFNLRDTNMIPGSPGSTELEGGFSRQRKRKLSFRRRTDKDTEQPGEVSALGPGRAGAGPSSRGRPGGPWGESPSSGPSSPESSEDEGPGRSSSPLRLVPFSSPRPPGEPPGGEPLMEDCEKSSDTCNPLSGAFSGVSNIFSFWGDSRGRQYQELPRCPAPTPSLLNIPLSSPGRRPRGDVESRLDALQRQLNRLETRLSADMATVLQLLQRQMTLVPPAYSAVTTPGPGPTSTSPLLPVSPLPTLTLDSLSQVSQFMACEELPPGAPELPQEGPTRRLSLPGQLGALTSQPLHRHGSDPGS

[37] = Oral bioavailability in Beagle dog at 3 mg/kg; type: ADME, organism-based, Canis lupus familiaris; settings: in vivo
Mus musculus [38] = assay: Inhibition of JAK2 in HEL 92.1.7 cells xenografted in nude mouse assessed as inhibition of STAT1 phosphorylation at 300 mg/kg, po after 4 hrs relative to vehicle-treated control; type: functional
Cynomolgus monkey = assay: Dose normalized AUC in cynomolgus monkey at 3 mg/kg, iv; type: ADME, organism-based, Macaca fascicularis; design: dose 3 mg/kg, route intravenous; settings: in vivo
[39] = Half life in CD rat at 5 mg/kg, iv; type: ADME, organism-based; design: dose 5 mg/kg, route intravenous; settings: in vivo
[40] = target: Receptor-type tyrosine-protein kinase FLT3 (Homo sapiens, UniProt P36888); assay: Inhibition of FLT3
Receptor-type tyrosine-protein kinase FLT3, sequence (P36888 whole entry): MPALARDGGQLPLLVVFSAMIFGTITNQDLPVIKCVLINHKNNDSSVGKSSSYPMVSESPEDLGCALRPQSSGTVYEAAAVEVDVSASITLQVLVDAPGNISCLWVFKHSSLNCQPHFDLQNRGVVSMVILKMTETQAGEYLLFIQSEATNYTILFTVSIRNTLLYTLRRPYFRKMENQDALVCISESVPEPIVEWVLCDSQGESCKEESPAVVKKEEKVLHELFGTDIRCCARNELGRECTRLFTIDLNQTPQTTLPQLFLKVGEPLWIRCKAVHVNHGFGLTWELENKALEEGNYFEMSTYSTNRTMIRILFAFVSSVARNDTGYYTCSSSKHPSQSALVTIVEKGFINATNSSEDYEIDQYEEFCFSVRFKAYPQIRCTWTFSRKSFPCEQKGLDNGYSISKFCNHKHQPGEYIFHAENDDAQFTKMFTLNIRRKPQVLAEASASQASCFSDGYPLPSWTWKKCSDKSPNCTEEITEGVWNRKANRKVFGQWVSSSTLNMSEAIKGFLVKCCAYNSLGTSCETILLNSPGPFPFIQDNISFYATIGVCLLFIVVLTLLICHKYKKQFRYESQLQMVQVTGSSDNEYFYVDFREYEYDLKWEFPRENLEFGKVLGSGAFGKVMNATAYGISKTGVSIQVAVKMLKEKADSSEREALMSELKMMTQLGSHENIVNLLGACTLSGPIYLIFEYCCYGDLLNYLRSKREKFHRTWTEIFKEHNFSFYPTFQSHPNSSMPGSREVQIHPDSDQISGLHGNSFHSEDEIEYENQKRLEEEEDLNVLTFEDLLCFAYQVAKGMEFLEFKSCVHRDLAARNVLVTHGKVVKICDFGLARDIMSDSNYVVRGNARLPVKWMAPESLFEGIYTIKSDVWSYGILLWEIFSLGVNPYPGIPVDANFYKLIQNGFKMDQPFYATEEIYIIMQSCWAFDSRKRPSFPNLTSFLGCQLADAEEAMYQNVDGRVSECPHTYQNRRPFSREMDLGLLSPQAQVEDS

[41] = Half life in Beagle dog at 3 mg/kg, iv; type: ADME, organism-based, Canis lupus familiaris; design: dose 3 mg/kg, route intravenous; settings: in vivo
[42] = Inhibition of p-gp
Mus musculus [43] = assay: Inhibition of JAK2 in HEL 92.1.7 cells xenografted in nude mouse assessed as inhibition of STAT3 phosphorylation at 300 mg/kg, po after 4 hrs relative to vehicle-treated control; type: functional
Canis familiaris [44] = assay: Dose normalized AUC in Beagle dog at 3 mg/kg, po; type: ADME, organism-based, Canis lupus familiaris; design: dose 3 mg/kg, route oral; settings: in vivo
[45] = Cmax in CD rat at 5 mg/kg, po; type: ADME, organism-based; design: dose 5 mg/kg, route oral; settings: in vivo
[46] = target: Non-receptor tyrosine-protein kinase TYK2 (Homo sapiens, UniProt P29597); assay: Inhibition of TYK2
Cytochrome P450 3A4 = Cytochrome P450 3A4 (Homo sapiens, UniProt P08684); assay: Inhibition of CYP3A4; type: ADME
Cytochrome P450 3A4, sequence (P08684 whole entry): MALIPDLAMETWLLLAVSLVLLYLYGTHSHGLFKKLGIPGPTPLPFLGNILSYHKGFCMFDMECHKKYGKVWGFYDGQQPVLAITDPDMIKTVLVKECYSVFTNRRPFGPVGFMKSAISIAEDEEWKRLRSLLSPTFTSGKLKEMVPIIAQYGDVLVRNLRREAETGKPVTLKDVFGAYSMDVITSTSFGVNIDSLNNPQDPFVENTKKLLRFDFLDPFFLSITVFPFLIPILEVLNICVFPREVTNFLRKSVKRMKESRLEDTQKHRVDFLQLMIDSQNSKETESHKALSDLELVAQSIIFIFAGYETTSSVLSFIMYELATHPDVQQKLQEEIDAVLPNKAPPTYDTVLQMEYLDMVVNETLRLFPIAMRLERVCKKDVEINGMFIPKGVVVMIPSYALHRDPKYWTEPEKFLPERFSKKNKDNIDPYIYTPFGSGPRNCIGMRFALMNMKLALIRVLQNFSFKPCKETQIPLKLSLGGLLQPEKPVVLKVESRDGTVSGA

pIC50 [1]: 6.65
pIC50 (Mus musculus [2]): 4.89
AUC/dose (Mus musculus [3]): 0.21 µM·kg·h/mg
half-life [4]: 3.23 h
Cmax [5]: 13000 nM
pIC50 [6]: 6.26
half-life [8]: 5.06 h
concentration at 4 h [10]: 62400 nM
pIC50 [11]: 6.26
Cmax [13]: 640 nM
INH (Cytochrome P450 2D6): >= 20 uM
half-life [14]: 1.13 h
concentration at 4 h [16]: 2000 nM
pIC50 [17]: 6.90
half-life [18]: 3.36 h
Cmax [19]: 170 nM
pIC50 [20]: 6.32
Cmax [21]: 490 nM
concentration at 4 h [22]: 5350 nM
pIC50 (Mus musculus [23]): 5.86
half-life [24]: 3.28 h
pIC50 [25]: 6.04
AUC/dose (Canis familiaris [26]): 1.47 µM·kg·h/mg
Vd (Canis familiaris [27]): 13.4 L/kg
Cmax [28]: 570 nM
bioavailability [29]: 53.6%
concentration at 4 h [32]: 830 nM
pIC50 [33]: 6.43
Cmax [34]: 5240 nM
AUC/dose (Rattus norvegicus): 15.99 µM·kg·h/mg
pIC50 [35]: 6.87
INH (Cytochrome P450 1A2): >= 20 uM
bioavailability [37]: 44.8%
AUC/dose (Cynomolgus monkey): 1.76 µM·kg·h/mg
half-life [39]: 3.12 h
pIC50 [40]: 6.85
half-life [41]: 6 h
INH [42]: > 20 µM
AUC/dose (Canis familiaris [44]): 0.68 µM·kg·h/mg
Cmax [45]: 3530 nM
pIC50 [46]: 6.46
INH (Cytochrome P450 3A4): >= 20 uM
Compound: O=C(Nc1ccc(-c2ccnc(Nc3ccc(N4CCOCC4)cc3)n2)cc1)[C@H]1CCCN1
ED50 (Mus musculus [2]; po): 210 mg/kg
inhibition in vivo at 100 mg/kg (Mus musculus [7]): 40%
inhibition in vivo at 300 mg/kg (HEL [9]): 70%
inhibition in vivo at 30 mg/kg (Mus musculus [12]): 41%
inhibition in vivo at 100 mg/kg (Mus musculus [15]): 72%
ED50 (Mus musculus [23]; po): 42 mg/kg
inhibition in vivo at 30 mg/kg (Mus musculus [30]): 9%
inhibition in vivo at 200 mg/kg (HEL [31]): 60%
INH [36]: 16 µM
inhibition in vivo at 300 mg/kg (Mus musculus [38]): 88%
inhibition in vivo at 300 mg/kg (Mus musculus [43]): 55%

From ChEMBL document CHEMBL2203210, “SAR and in vivo evaluation of 4-aryl-2-aminoalkylpyrimidines as potent and selective Janus kinase 2 (JAK2) inhibitors” (Bioorg Med Chem Lett, 2012)
